Where a name gives a salt, the structure may show the parent alone. Read-outs that look alike come from different tables or passages of the source.
Tests used:
[1] = system: RFP gene downstream of a T7 promoter in E. coli; test: IPTG inducer concentration optimization, RFP expression dose-response (AIMS and macro-scale); type: cell-based; settings: after four hours
Method: For inducer concentration optimization carried out in the macroscale, starter cultures with a RFP plasmid were prepared at OD 0.1 from overnight inoculations. The cultures were grown at 37° C. with shaking and were induced upon reaching OD 0.4. 45 mL of the culture was induced at 200 micromolar and diluted with fresh media to generate the following IPTG concentrations: 200, 133.3, 88.9, 59.3, 40, 26.7, 17.8, and 11.9 micromolar. These sub-cultures were prepared in triplicates along with a non-induced control and were induced at 37° C. and shaken for 4 hours. After induction, 200 microliters of each culture were loaded onto a 96-well plate and fluorescence at 612 nm was measured with 582 nm excitation on a TECAN Infinite M200 plate reader (Mannedorf, Switzerland) with the settings: gain of 75, 25 flashes and 20 microseconds integration time. The fluorescence intensity with increasing IPTG concentration was plotted on a logarithmic scale to generate a dose-response curve.
In the inducer concentration optimization program, three unit droplets of 1.42 microliters containing transformed RFP-cells were dispensed from the culture region and mixed with 0.3 microliters of 3.24 mM IPTG. This droplet was actuated to an empty reservoir and one daughter droplet was split from this reservoir and actuated to the incubation region. […]

H1299 cells [2] = test: On-chip (ACE digital microfluidic) sorafenib dose-response, cell viability by Calcein-AM cell count; type: cell-based, Human; settings: for IC50: Homo sapiens
From the text: Similarly, in the microscale, the transfection protocol is followed for seeding cells and the 7-step protocol for transfection of the pCRISPR plasmid containing sgRNA targeting eGFP or Raf-1. The standard step 7 was replaced with step 7a and step 7b. In step 7a, sorafenib tosylate in complete media was actively dispensed into unit droplets and then diluted in liquid media to form six different concentrations (0 micromolar, 7.5 micromolar, 15 micromolar, 30 micromolar, 60 micromolar, 120 micromolar) of which one droplet (0.7 microliters) was used to passively dispense onto each hydrophilic spot and the other droplet was saved for future dilutions. After all cells were interrogated with the drugs, they were incubated for two days. In step 7b, six unit droplets of 5 micromolar Calcein-AM violet stain were passively dispensed to the cells and incubated for 30 min in which images were taken to count the cells using a single module imaging pipeline. Calcein-stained image was smoothed with a Gaussian filter (G, sigma=1) and used the Otsu Global thresholding method to detect objects with diameters of 20-100 pixel units (two classes, threshold correction factor=1.25). Neighboring pixels are grouped into objects and undesired clumped objects (e.g., two close overlapping objects) are declumped using intensity segregation. The counted cells were normalized to the control (e.g., cell interrogated with no drugs). All curves were fit with a sigmoid function and probed for statistical significance using an F-test in the linear region.
To verify the effects of targeting RAF1 by genome editing and enzymatic inhibition, H1299 cells were cultured, edited, assayed, and analyzed on the ACE platform following procedures for measuring transfection and knockout efficiencies. Images of the lung cancer cells that are transfected with and without pCRISPR targeting RAF1 and treated with the sorafenib inhibitor are analysed using the standardized imaging pipeline (FIG. 39B, FIG. 51). […] The effects of RAF protein kinase inhibitor sorafenib tosylate with and without CRISPR-mediated RAF1 targeting were examined.

H1299 cells [3] = test: Cell viability over 7 days after RAF1 gene editing and sorafenib tosylate (FIG. 50); type: cell-based, Human; settings: cells with both pCRISPR targeting RAF1 and 15 micromolar sorafenib tosylate added on day 2; after day 4
Method: MAPK/ERK pathway experiments. The MAPK/ERK pathway experiments used two key components: CRISPR-Cas9 genomic disruption of Raf1 and drug inhibition using sorafenib tosylate. In the macroscale, 0.75×10^5 cells/mL of H1299 cells were seeded on day 0 in 24-well plates. 600 ng of the pCRISPR plasmid targeting eGFP (control) or RAF1 was applied to the wells containing the cells on day 1. On day 3, drug conditions were added at different concentrations: 0 micromolar, 7.5 micromolar, 15 micromolar, 30 micromolar, 60 micromolar, 120 micromolar which were diluted in complete media. On day 5, 5 micromolar Calcein-AM violet stain (λex, lambda(ex)=408 nm and λem, lambda(em)=450 nm) diluted in 250 microliters fresh serum-free media was added to the cells and incubated at 37° C. for 30 min. The viability of cells was assessed by performing a fluorescence well scan using the CLARIOStar well-plate reader. The measured fluorescence was normalized to the control to determine the percent viability.
To assess the coupled effects of genome editing and drug inhibition, the H1299 cells with a pCRISPR targeting RAF1 or a control sgRNA were transfected and 15 micromolar sorafenib tosylate was added on day 2. […]
Four conditions were tested by acquiring fluorescent measurements over 7 days to assess proliferation. […] All readings were taken in triplicate and error bars represent +/−1 s.d.

[4] = On-chip beta-glucosidase colorimetric assay, blue channel pixel intensity (image-based feedback system); type: biochemical, Thermobaculum terrenum
Method: The assay on-chip included three different solutions loaded onto the DMF device reservoirs. First, a unit droplet of cell lysate was dispensed and actuated to each of the four assay mixing areas (see FIG. 5 for DMF design) using a starting voltage of 230 VRMS at 15 kHz. The lysate was prepared from a colony of BL21(DE3) transformed with a plasmid containing beta-glucosidase (BGL) gene (see FIG. 6 and FIG. 7 for plasmid map and sequence (SEQ ID NO: 1) respectively) that was grown at 37° C. and induced at 0.4 O.D (˜1.75 h starting at 0.1 O.D). The assay started by the addition of a droplet containing substrate to a droplet of cell lysate. The substrate solution contained 50 mM sodium citrate at pH 7.0 and 4 mM 4-nitrophenyl beta-D-glucopyranoside (MUG). The reactions were incubated at different times (0, 40, 80, and 120 min) and arrested by the addition of a unit droplet of 0.3 M Glycine-NaOH on the assay areas on the device. Solutions contained 0.05% final concentration of F-68 Pluronics. […]
The typical model for analyzing kinetics of a beta-glucosidase enzyme is to use a chromogenic model substrate para-nitrophenyl-beta-glucoside (pNPG) that will produce glucose and para-nitrophenol upon hydrolysis (FIG. 14). The liberation of para-nitrophenol (pNP) gives a yellow color product which can be monitored by an image-based feedback system. […]

[5] = BGL off-chip assay in well plate, absorbance at 405 nm; type: biochemical, Thermobaculum terrenum; settings: well-plate reader
Method: Referring to FIG. 16, there is shown off-chip enzymatic assay with an absorbance readout as a function of time were collected every 30 min. Nine reactions containing equal volume of lysate with enzyme and substrate were mixed in a well of a 96 well plate. At 30 min intervals, the reaction was arrested by glycine-NaOH solution and an absorbance measurement was acquired from the product formation of pNP which gave a yellow color. Each experiment was repeated three times, and error bars are +/−1 SD.
Protein expression. The plasmid containing the cloned BGL1 gene was first transformed into E. coli BL21(DE3) for recombinant expression. The transformed cells were inoculated overnight in a 5 mL pre-culture. The following day, the culture was diluted to OD 0.05 in a 100 mL starter culture and grown at 37° C. with 200 rpm shaking. Upon reaching OD 0.4, expression of the BGL1 gene was induced by addition of 1 mM IPTG and induction was carried out under the same growth conditions for 8 hours. […]
BGL off-chip assay. […] Absorbance at 405 nm was immediately acquired after stopping each reaction on a TECAN infinite M200 plate reader with the following settings: 9 nm bandwidth, single reads per well, 25 flashes per reading, and 0 ms of settle time. Reactions with absorbance units >4 were diluted and the final absorbance was calculated from the diluted sample. […]

CC(C)S[C@@H]1O[C@H](CO)[C@H](O)[C@H](O)[C@H]1O [IPTG, isopropyl beta-D-1-thiogalactopyranoside]
IPTG concentration at which protein production was constant (comparable to basal levels) [1]: < 30 µM
IPTG concentration giving highest protein production ([1]; induced at OD 0.4): above 200 micromolar

CNC(=O)c1cc(Oc2ccc(NC(=O)Nc3ccc(Cl)c(C(F)(F)F)c3)cc2)ccn1 [sorafenib, sorafenib tosylate]
IC50 (H1299 cells [2]; NCI-H1299, read-out: inhibitory sorafenib concentration achieving half-maximal viability level (IC50), on-chip, cells transfected with pCRISPR targeting RAF1, fitted sigmoid curve): 13.2 µM
IC50 (H1299 cells [2]; NCI-H1299, read-out: inhibitory sorafenib concentration achieving half-maximal viability level (IC50), on-chip, control (guide targeting eGFP), fitted sigmoid curve): 7.54 µM
sensitivity in the linear micromolar range (H1299 cells [2]; edited H1299 cells with CRISPR-mediated RAF1 targeting): 7 to 35 µM
fold reduction of IC50 with pCRISPR targeting RAF1 versus control (H1299 cells [2]; on-chip): ~1.8 fold
basal viability level (H1299 cells [3]): ~25%

B1: beta-glucosidase: β-glucosidase (BGL) from Thermobaculum terrenum in BL21(DE3) cell lysate, plasmid pET_BGL1 of Example 1 (protein, listed as Thermobaculum terrenum)
chain: MKHLVTTLLFGLVFAAAVRAQSSRVDSLLAAMTLAEKISLLHGAIDPTGEAGAGYVPGVPRLGIPAMRLTDGPAGIRTRHPATALPAPVALAASFDPELAYRYGHVMGIEGRARRHEVLLSPMVNIVRVPEAGRNFETFSEDPLLSAEMVAAEVRGIQDAGMMATVKHYVANNFENDRMRVNVVVDERTLREIYLPGFEAAIKAGAAAVMCAYNRVNGPYACDNEMLLTDILRDEWGFEGWVMTDWFAGHSLESLVRGLDQEMPGYTIPFSSPDMPLAPAVFADSLLAAVESGRIDEAYVDRAVRRILVQMEQFGLLDGESTPPEINIEAHAAVAREVAEAGAVLLRNENQTLPLSERDLQHLVVIGPTATRPLIGGGGSSRVQPFRTTSTLAALQELAGPQAQIRYVPGIDLDGMPVPSSALRTPDGQPGLLRQGADGTTQVDAQLDFTGERALPPGSQWTWTGTLTAPTAGVYELKLQTAGGVGTLSIDGQPVLRTGMFFSDASLIPTADSLENATYRIELQAGQQLSLTVQISGQVPSLPFLPAGQNPVQVRLAWVTPERRAAFLEEAAEAARAAHAAIVFVYEEGTEGRDRETLALRPDQDALVEAVAAANPRTTVVMNVGAPTLMPWAERVGAILLMWYPGQEGGWATADVLLGRANPAGRLPVTFPRRAEDAPTASPERYPGVDLTARYDEGIFVGYRWYDAQQIEPLFPFGHGLSYTTFAYENLRVEPDGDGFVVRFVVRNTGDRAGSDVPQVYLGPPENPPVPMAVRQLVGFRRVTLAPGEAQEVTVRIDGRALSYWSVEDHAWVKATGRRTLYVGASARDLRLQTEIDVQ
first order rate constant kDMF [4]: 4.64e-05 s⁻¹
first order rate constant kPLATE [5]: 0.504 h⁻¹

— US20200001302A1, “MICROFLUIDIC DEVICES, SYSTEMS, INFRASTRUCTURES, USES THEREOF AND METHODS FOR GENETIC ENGINEERING USING SAME” (VALORBEC, SOCIÉTÉ EN COMMANDITE, priority 2018, published 2020)
